Assay results published in US6384051B1, “Method of treating or inhibiting colonic polyps” (American Cyanamid Company, priority 2000, dated 2002).

test system: min mouse; experiment: not given; settings: background statement on NSAID's; cited from earlier work

SMILES	intestinal polyp formulation in min mice (NSAID's)
CCc1cccc2c3c([nH]c12)C(CC)(CC(=O)O)OCC3 (stereo not shown) [etodoloc]	can reduce (but not eradicate) intestinal polyp formulation
CC1=C(CC(=O)O)c2cc(F)ccc2/C1=C\c1ccc([S+](C)[O-])cc1 (stereo not shown) [sulindac]	can reduce (but not eradicate) intestinal polyp formulation

test system: Min mouse (C57BL/6J-Min/+); experiment: in vivo test procedure emulating FAP: Min mouse (C57BL/6J-Min/+), compound blended with AIN-93G chow for 60 days, intestinal polyps counted on day 61; settings: not given
Description: The polyps that develop in Min mice express EGFR and have activated COX-2.
On day 61, the animals were euthanized with CO2 inhalation, and the entire intestinal tract from stomach to anus was removed. The intestinal tract was injected with Bouins fixative, and allowed to fix for several days. The intestinal tracts were then opened and the number of polyps counted.

SMILES	reducing polyp numbers in mice
CCOc1cc2ncc(C#N)c(Nc3ccc(F)c(Cl)c3)c2cc1NC(=O)C=CCN(C)C [Example 399, 4-Dimethylamino-but-2-enoic acid [4-(3-chloro-4-fluoro-phenylamino)-3-cyano-7-ethoxy-quinolin-6-yl]-amide]	effective in significantly reducing polyp numbers

test system: not given; experiment: not given; settings: not given

melting point	SMILES
> 250 °C	COc1ccc2ncc(C#N)c(Nc3ccc(Cl)cc3F)c2c1 [Example 283, 4-(4-Chloro-2-fluoro-phenylamino)-6-methoxy-quinoline-3-carbonitrile]
> 250 °C (dec.)	COc1ccc2ncc(C#N)c(Nc3ccc(C)c(O)c3)c2c1 [Example 284, 4-(3-Hydroxy-4-methyl-phenylamino)-6-methoxy-quinoline-3-carbonitrile]
228 to 230 °C	COc1ccc2ncc(C#N)c(Nc3cc(O)c(Cl)cc3F)c2c1 [Example 285, 4-(4-Chloro-2-fluoro-5-hydroxy-phenylamino)-6-methoxy-quinoline3-carbonitrile]
> 250 °C	COc1cc2ncc(C#N)c(Nc3cc(Cl)c(O)c(Cl)c3)c2cc1OC [Example 286, 4-(3,5-Dichloro-4-hydroxy-phenylamino)-6,7-dimethoxy-quinoline-3-carbonitrile]
> 250 °C	COc1cc2ncc(C#N)c(Nc3ccc(C)cc3O)c2cc1OC [Example 287, 4-(2-Hydroxy-4-methyl-phenylamino)-6,7-dimethoxy-quinoline-3-carbonitrile]
> 250 °C	COc1cc2ncc(C#N)c(Nc3ccc(C(N)=O)cc3)c2cc1OC [Example 289, 4-(3-Cyano-6,7-dimethoxy-quinolin-4-ylamino)-benzamide]
> 250 °C	COc1cc2ncc(C#N)c(Nc3cc(Cl)ccc3O)c2cc1OC [Example 290, 4-(5-Chloro-2-hydroxy-phenylamino)-6,7-dimethoxy-quinoline-3-carbonitrile]
> 250 °C	COc1cc2ncc(C#N)c(Nc3cc(Br)c(O)c(Br)c3)c2cc1OC [Example 291, 4-(3,5-Dibromo-4-hydroxy-phenylamino)-6,7-dimethoxy-quinoline-3-carbonitrile]
> 250 °C	COc1cc2ncc(C#N)c(Nc3ccc(O)cc3C)c2cc1OC [Example 292, 4-(4-Hydroxy-2-methyl-phenylamino)-6,7-dimethoxy-quinoline-3-carbonitrile]
198 to 200 °C	COc1cc2ncc(C#N)c(Nc3cc(C)ccc3O)c2cc1OC [Example 295, 4-(2-Hydroxy-5-methyl-phenylamino)-6,7-dimethoxy-quinoline-3-carbonitrile]
> 250 °C	COc1cc2ncc(C#N)c(Nc3ccc(O)cc3Cl)c2cc1OC [Example 296, 4-(2-Chloro-4-hydroxy-phenylamino)-6,7-dimethoxy-quinoline-3-carbonitrile]
238 to 240.5 °C	COc1cc2ncc(C#N)c(Nc3ccccc3C(N)=O)c2cc1OC [Example 297, 2-(3-Cyano-6,7-dimethoxy-quinolin-4-ylamino)-benzamide]
208 to 210 °C	COc1cc2ncc(C#N)c(Nc3ccc(CCO)cc3)c2cc1OC [Example 299, 4-[4-(2-Hydroxy-ethyl)-phenylamino]-6,7-dimethoxy-quinoline-3-carbonitrile]
> 250 °C	COc1cc2ncc(C#N)c(Nc3ccc(O)cc3O)c2cc1OC [Example 300, 4-(2,4-Dihydroxy-phenylamino)-6,7-dimethoxy-quinoline-3-carbonitrile]
159 to 162 °C	COc1cc2ncc(C#N)c(Nc3ccccc3CCO)c2cc1OC [Example 301, 4-[2-(2-Hydroxy-ethyl)-phenylamino]-6,7-dimethoxy-quinoline-3-carbonitrile]
120 to 126 °C	COc1cc2c(Nc3ccc(O)cc3C)c(C#N)cnc2cc1OCCCN1CCOCC1 [Example 312, 4-(4-Hydroxy-2-methyl-phenylamino)-6-methoxy-7-(3-morpholin-4yl-propoxy)-quinoline-3-carbonitrile]

melting point	SMILES
115 to 118 °C	COc1cc2c(Nc3cccc(Br)c3)c(C#N)cnc2cc1OCCCN1CCOCC1 [Example 313, 4-(3-Bromo-phenylamino)-6-methoxy-7-(3-morpholin-4-yl-propoxy)-quinoline-3-carbonitrile]
179 to 180 °C	COc1cc2c(Nc3ccccc3SC)c(C#N)cnc2cc1OCCCN1CCOCC1 [Example 314, 6-Methoxy-4-(2-methylsulfanyl-phenylamino)-7-(3-morpholin-4-yl-propoxy)-quinoline-3-carbonitrile]
180 °C (dec.)	CN(C)CC#CC(=O)Nc1ccc2ncc(C#N)c(Nc3cccc(Br)c3)c2c1 [Example 329, N-[4-[(3-Bromophenyl)amino]-3-cyano-6-quinolinyl]-4-dimethylamino-2-butynamide]
197 °C (dec.)	COCC#CC(=O)Nc1ccc2ncc(C#N)c(Nc3cccc(Br)c3)c2c1 [Example 330, N-[4-[(3-Bromophenyl)amino]-3-cyano-6-quinolinyl]-4-methoxy-2-butynamide]
123 to 125 °C	COc1cc2ncc(C#N)c(Nc3cccc(CO)c3C)c2cc1OC [Example 333, 4-(3-Hydroxymethyl-2-methylphenylamino)-6,7-dimethoxyquinoline-3-carbonitrile]
248 to 250 °C	CCc1ccc(Nc2c(C#N)cnc3cc(OC)c(OC)cc23)cc1 [Example 335, 4-(4-Ethylphenylamino)-6,7-dimethoxyquinoline-3-carbonitrile]
227 to 229 °C	COc1cc2ncc(C#N)c(Nc3ccc(Cl)cc3C)c2cc1OC [Example 336, 4-(4-Chloro-2-methylphenylamino)-6,7-dimethoxyquinoline-3-carbonitrile]
265 to 267 °C	COc1cc2ncc(C#N)c(Nc3ccc(Cl)c(C(F)(F)F)c3)c2cc1OC [Example 338, 4-(4-Chloro-3-trifluoromethylphenylamino)-6,7-dimethoxyquinoline-3-carbonitrile]
246 to 249 °C	COc1cc2ncc(C#N)c(Nc3cccc(N(C)C)c3)c2cc1OC [Example 366, 4-(3-Dimethylamino-phenylamino)-6,7-dimethoxy-quinoline-3-carbonitrile]
> 131 °C (dec.)	COc1ccc(Nc2c(C#N)cnc3cc(OC)c(OC)cc23)c(C)c1 [Example 367, 6,7-Dimethoxy-4-(4-methoxy-2-methyl-phenylamino)-quinoline-3-carbonitrile]
242 to 245 °C	COc1cc2ncc(C#N)c(Nc3cccc(C(=O)O)c3C)c2cc1OC [Example 368, 3-(3-Cyano-6,7-dimethoxy-quinolin-4-ylamino) -2-methyl-benzoic acid]
> 250 °C	COc1cc2ncc(C#N)c(Nc3ccc(C)c(Cl)c3)c2cc1OC [Example 370, 4-(3-Chloro-4-methyl-phenylamino)-6,7-dimethoxy-quinoline-3-carbonitrile]
200 to 202 °C	COc1ccc(Cl)cc1Nc1c(C#N)cnc2cc(OC)c(OC)cc12 [Example 372, 4-(5-Chloro-2-methoxyphenylamino)-6,7-dimethoxy-quinoline-3-carbonitrile]
270 to 272 °C	N#Cc1cnc2cc(O)c(O)cc2c1Nc1ccc(Cl)cc1F [Example 373, 4-(4-Chloro-2-fluoro-phenylamino)-6,7-dihydroxy-quinoline-3-carbonitrile]
116 to 118 °C	COc1cc2ncc(C#N)c(Nc3ccc(C(F)(F)F)cc3)c2cc1OC [Example 376, 6,7-Dimethoxy-4-(4-trifluoromethyl-phenylamino)-quinoline-3-carbonitrile]
